Where a name gives a salt, the structure may show the parent alone.
Key:
[1] = tested on: Antibody to AB-Pinaca-KLH (raised against immunogen 2 of Example 6); assay: Competitive ELISA characterising antibodies to AB-Pinaca-KLH with Tracer-1 (Example 9); assay type: binding; conditions: for % CR (percentage cross-reactivity): AB-Pinaca = 100.00; for IC50 (standard concentration which produces 50% inhibition of maximal signal): calibration curves 0-20 ng/ml
Protocol: The wells of an enhanced binding 96 well polystyrene microtitre plate were coated with IgG fraction of antiserum raised to AB-Pinaca-KLH (Immunogen 2 of Example 6), diluted in 10 mM Tris, pH8.5 (125 μl/well). The appropriate antibody coating dilution was determined using standard ELISA checkerboard techniques. The plate was incubated for 2 hours at 37° C., washed 4 times over 10 minutes with Tris buffered saline containing Tween 20 (TBST) and tapped dry. Standard solutions of AB-Pinaca pentanoic acid were prepared in TBST at 0, 0.31, 0.63, 1.25, 2.50, 5.0, 10.0 and 20.0 ng/ml, and 50 μl of each was added to the appropriate wells. 75 μl of Tracer-1 (Example 7) diluted in Tris buffer (pH 7.2) containing EDTA, D-mannitol, sucrose, thimerosal and BSA, was added to each of the wells. The appropriate dilution of tracer was also determined using standard ELISA checkerboard techniques. The plate was incubated at 25° C. for 1 hour. Excess unbound tracer was removed by washing 6 times over a 10-15 minute period with TBST and tapped dry. 125 μl of tetramethylbenzidine (TMB) substrate solution was added to each well of the plate that was then incubated for 20 minutes in the dark at room temperature. The reaction was terminated by addition of 125 μl 0.2 M H2SO4 to each well. The absorbance was measured at 450 nm using a microtitre plate reader. In order to determine the specificity of the competitive ELISAs, standard solutions of a range of structurally similar compounds were prepared in TBST. Using calibration curves generated from these compounds (0-20 ng/ml), the cross-reactivity was determined.

[2] = tested on: AB-PINACA antibody (raised against immunogen 2 of Example 6); assay: AB-PINACA ELISA, final validated kit with Tracer-2 (Example 10), specificity; assay type: binding; conditions: for % Cross-Reactivity: AB-PINACA N-Pentanoic acid = 100
Protocol: A microtitre plates was precoated with AB-PINACA antibody (raised against immunogen 2 of Example 6). Pinaca derivative (antigen), if present in the sample competes with the horseradish peroxidase labelled AB-PINACA (enzyme labelled antigen, herein Tracer-2 of Example 8) for a limited number of antibody sites on the microtitre plate. After incubation at room temperature to allow a competition reaction to take place, the microtitre plate was washed to remove excess reagents. The enzyme substrate ([…]) was added. After an incubation period to allow maximum colour development, the colour reaction was stopped by the addition of acid. This produces a colour change from blue to yellow, and the absorbances are read at 450 nm. A standard curve was then constructed to determine the Pinaca derivative's concentration in the sample.
All reagents were left to reach room temperature (+15 to +25° C.) prior to use. In order to minimise edge effects microtitre plate was sealed with an adhesive plate sealer.
The assay was performed in duplicate. The following layout was used for a test plate where each box represents 2 wells.
• a) The following was pipetted into the appropriate wells of the microtitre plate:
• b) The microtitre plate was gently tapped plate from side to side for a few seconds. • c) The microtitre plate was covered with a plate sealer before incubating for 30 minutes at room temperature (+15 to +25° C.) in the dark. • d) The plate was inverted and the liquid was tapped out. • e) The plate was washed 6 times with diluted wash buffer (ensuring all wells were filled), over a 10-15 minute period. After the final wash the liquid was discarded and the plate was tapped onto lint free tissue paper until completely dry. • f) Immediately after washing, 125 μL of the one shot substrate II solution was pipetted into each well using a multichannel pipette. The microtitre plate was gently tapped from side to side and incubated for (20±2 minutes) at room temperature (+15 to +25° C.) in the dark. • g) The colour reaction was stopped by the addition of 100 μL of stop solution per well. A colour change from blue to yellow should be evident. • h) The optical density was measured at 450 nm within 10 minutes of stopping the colour reaction. The use of a 630 nm filter is recommended as the reference wavelength, if available. Standard Curve and Interpretation of Results • a) The mean absorbance of the standards, controls and samples were calculated. • b) The absorbances of standards against log10 (standard concentration) were plotted. • c) The control and sample concentrations were read from the standard curve. • d) To obtain concentrations for urine samples in ng/mL, the results were multiplied by 3 to take into account the dilution factor. • e) To obtain concentrations for whole blood samples in ng/mL, the results were multiplied by 4 to take into account the dilution factor. • f) It is recommended that a 4 parameter curve fit method is used when generating the standard curve. Limits of Detection

CC(C)C(NC(=O)c1nn(CCCCCO)c2ccccc12)C(N)=O (stereo not drawn) [1-(5-OHpentyl) AB-Pinaca, 1-(5-hydroxypentyl) AB-Pinaca]
% CR (percentage cross-reactivity) [1]: 124.80% | IC50 (standard concentration which produces 50% inhibition of maximal signal) [1]: 0.887 ng/mL | B/Bo (Percentage B/B0) ([1]; standard conc 0.31 ng/ml): 68.9% | OD (absorbance at 450 nm) ([1]; standard conc 0.31 ng/ml): 1.415 | B/Bo (Percentage B/B0) ([1]; standard conc 0.63 ng/ml): 56.6% | OD (absorbance at 450 nm) ([1]; standard conc 0.63 ng/ml): 1.163 | B/Bo (Percentage B/B0) ([1]; standard conc 1.25 ng/ml): 43.6% | OD (absorbance at 450 nm) ([1]; standard conc 1.25 ng/ml): 0.896 | B/Bo (Percentage B/B0) ([1]; standard conc 2.50 ng/ml): 33.6% | OD (absorbance at 450 nm) ([1]; standard conc 2.50 ng/ml): 0.690 | B/Bo (Percentage B/B0) ([1]; standard conc 5.00 ng/ml): 24.5% | OD (absorbance at 450 nm) ([1]; standard conc 5.00 ng/ml): 0.504 | B/Bo (Percentage B/B0) ([1]; standard conc 10.00 ng/ml): 17.3% | OD (absorbance at 450 nm) ([1]; standard conc 10.00 ng/ml): 0.356 | B/Bo (Percentage B/B0) ([1]; standard conc 20.00 ng/ml): 11.8% | OD (absorbance at 450 nm) ([1]; standard conc 20.00 ng/ml): 0.242 | % Cross-Reactivity [2]: 83.8%

CC(C)C(NC(=O)c1nn(CCCCCF)c2ccccc12)C(N)=O (stereo not drawn) [5-fluoro AB-Pinaca, 5-fluoropentyl AB-Pinaca]
% CR (percentage cross-reactivity) [1]: 203.49% | IC50 (standard concentration which produces 50% inhibition of maximal signal) [1]: 0.544 ng/mL | B/Bo (Percentage B/B0) ([1]; standard conc 0.31 ng/ml): 60.2% | OD (absorbance at 450 nm) ([1]; standard conc 0.31 ng/ml): 1.351 | B/Bo (Percentage B/B0) ([1]; standard conc 0.63 ng/ml): 47.7% | OD (absorbance at 450 nm) ([1]; standard conc 0.63 ng/ml): 1.070 | B/Bo (Percentage B/B0) ([1]; standard conc 1.25 ng/ml): 36.5% | OD (absorbance at 450 nm) ([1]; standard conc 1.25 ng/ml): 0.819 | B/Bo (Percentage B/B0) ([1]; standard conc 2.50 ng/ml): 28.0% | OD (absorbance at 450 nm) ([1]; standard conc 2.50 ng/ml): 0.629 | B/Bo (Percentage B/B0) ([1]; standard conc 5.00 ng/ml): 20.6% | OD (absorbance at 450 nm) ([1]; standard conc 5.00 ng/ml): 0.462 | B/Bo (Percentage B/B0) ([1]; standard conc 10.00 ng/ml): 14.5% | OD (absorbance at 450 nm) ([1]; standard conc 10.00 ng/ml): 0.326 | B/Bo (Percentage B/B0) ([1]; standard conc 20.00 ng/ml): 10.1% | OD (absorbance at 450 nm) ([1]; standard conc 20.00 ng/ml): 0.227 | % Cross-Reactivity [2]: 98.9%

CC(C)C(NC(=O)c1nn(Cc2ccc(F)cc2)c2ccccc12)C(N)=O (stereo not drawn) [AB-Fubinaca, N-(1-amino-3-methyl-1-oxobutan-2-yl)-1-(4-fluorobenzyl)-1H-indazole-3-carboxamide]
% CR (percentage cross-reactivity) [1]: 71.60% | IC50 (standard concentration which produces 50% inhibition of maximal signal) [1]: 1.546 ng/mL | B/Bo (Percentage B/B0) ([1]; standard conc 0.31 ng/ml): 72.0% | OD (absorbance at 450 nm) ([1]; standard conc 0.31 ng/ml): 1.541 | B/Bo (Percentage B/B0) ([1]; standard conc 0.63 ng/ml): 64.4% | OD (absorbance at 450 nm) ([1]; standard conc 0.63 ng/ml): 1.379 | B/Bo (Percentage B/B0) ([1]; standard conc 1.25 ng/ml): 52.3% | OD (absorbance at 450 nm) ([1]; standard conc 1.25 ng/ml): 1.120 | B/Bo (Percentage B/B0) ([1]; standard conc 2.50 ng/ml): 42.7% | OD (absorbance at 450 nm) ([1]; standard conc 2.50 ng/ml): 0.915 | B/Bo (Percentage B/B0) ([1]; standard conc 5.00 ng/ml): 32.4% | OD (absorbance at 450 nm) ([1]; standard conc 5.00 ng/ml): 0.695 | B/Bo (Percentage B/B0) ([1]; standard conc 10.00 ng/ml): 22.9% | OD (absorbance at 450 nm) ([1]; standard conc 10.00 ng/ml): 0.491 | B/Bo (Percentage B/B0) ([1]; standard conc 20.00 ng/ml): 15.7% | OD (absorbance at 450 nm) ([1]; standard conc 20.00 ng/ml): 0.337 | % Cross-Reactivity [2]: 35.3%

COc1ccccc1CC(=O)c1cn(CCCCCC(=O)O)c2ccccc12 [JWH-250 N-(5-Carboxypentyl)]
Concentration of compounds that elicit a negative response at the indicated concentration [2]: 100 ng/mL

COc1ccccc1CC(=O)c1cn(CCCCCO)c2ccccc12 [JWH-250 N-(5-Hydroxypentyl)]
Concentration of compounds that elicit a negative response at the indicated concentration [2]: 100 ng/mL

CCCCCn1cc(C(=O)c2ccc(Cl)c3ccccc23)c2ccccc21 [JWH-398]
Concentration of compounds that elicit a negative response at the indicated concentration [2]: 100 ng/mL

CCCCCn1nc(C(=O)Nc2cccc3ccccc23)c2ccccc21 [MN-18]
% Cross-Reactivity [2]: <1%

COc1cccc2c(C(=O)N[C@@H]3C(C)(C)[C@@H]4CC[C@@]3(C)C4)cn(CCN3CCOCC3)c12 [MN-25]
% Cross-Reactivity [2]: <1%

CN(C)C(=N)N=C(N)N [Metformin HCl]
Concentration of compounds that elicit a negative response at the indicated concentration [2]: 10000 ng/mL

CCCCCn1cc(C(=O)Nc2cccc3ccccc23)c2ccccc21 [NNEI]
Concentration of compounds that elicit a negative response at the indicated concentration [2]: 100 ng/mL

CCCCCn1cc(C(=O)O)c2ccccc21 [PB-22 3-Carboxyindole metabolite]
Concentration of compounds that elicit a negative response at the indicated concentration [2]: 100 ng/mL

O=C(Oc1cccc2cccnc12)c1cn(CCCCCO)c2ccccc12 [PB-22 N-(5-hydroxypentyl) metabolite]
% Cross-Reactivity [2]: <1%

O=C(O)CCCCn1cc(C(=O)Oc2cccc3cccnc23)c2ccccc21 [PB-22 N-Pentanoic acid]
% Cross-Reactivity [2]: <1%

CCCCCn1cc(C(=O)Oc2cccc3cccnc23)c2ccccc21 [PB-22]
Concentration of compounds that elicit a negative response at the indicated concentration [2]: 100 ng/mL

CC(C)NCC(O)COc1cccc2ccccc12 (stereo not drawn) [Propranolol HCL]
Concentration of compounds that elicit a negative response at the indicated concentration [2]: 10000 ng/mL

CCCCCn1cc(C(=O)c2ccc(OC)cc2)c2ccccc21 [RCS-4]
% Cross-Reactivity [2]: <1%

COc1ccccc1CC(=O)c1cn(CCC2CCCCC2)c2ccccc12 [RCS-8]
Concentration of compounds that elicit a negative response at the indicated concentration [2]: 100 ng/mL

CNC(=C[N+](=O)[O-])NCCSCc1ccc(CN(C)C)o1 [Ranitidine HCl]
Concentration of compounds that elicit a negative response at the indicated concentration [2]: 10000 ng/mL

O=C(O)CCCCn1cc(C(=O)NC23CC4CC(CC(C4)C2)C3)c2ccccc21 [SDB-001 N-Pentanoic acid]
% Cross-Reactivity [2]: <1%

O=C(NC12CC3CC(CC(C3)C1)C2)c1cn(CCCCCF)c2ccccc12 [STS-135]
Concentration of compounds that elicit a negative response at the indicated concentration [2]: 100 ng/mL

O=C(c1cccc2ccccc12)c1nn(CCCCCF)c2ccccc12 [THJ 2201]
Concentration of compounds that elicit a negative response at the indicated concentration [2]: 100 ng/mL

CC1(C)C(C(=O)c2cn(CCCCC(=O)O)c3ccccc23)C1(C)C [UR-144 N-Pentanoic acid]
Concentration of compounds that elicit a negative response at the indicated concentration [2]: 100 ng/mL

CCCCCn1cc(C(=O)C2C(C)(C)C2(C)C)c2ccccc21 [UR-144]
Concentration of compounds that elicit a negative response at the indicated concentration [2]: 100 ng/mL

CC1(C)C(C(=O)c2cn(CCCCCF)c3ccccc23)C1(C)C [XLR-11]
Concentration of compounds that elicit a negative response at the indicated concentration [2]: 100 ng/mL

From patent US10509046B2, “Detection of indazole synthetic cannabinoids” (Randox Laboratories Limited, priority 2014, dated 2019)
